Results published in BigSolDB 2.1.

C1CNCCNCCNCCN1
solubility (mole fraction)
Settings	298.15 K	303.15 K	308.15 K	313.15 K	318.15 K	323.15 K
in isopropanol	0.00193	0.00202	0.00213	0.00224	0.0023	0.00249
in methanol	0.00266	0.00268	0.00305	0.00318	0.00321	0.00328
